Data set [1] concerns the target T1, KPC-2 WT (Klebsiella pneumoniae, UniProt Q9F663). Type of data set: biochemical. The protocol:
(§1) Measurements to determine kinetic parameters for hydrolysis, and kinetic parameters for inhibition were performed at ambient temperature in PBS (pH 7.4) containing 0.1 mg/mL bovine serum albumin, using a PowerWaveXS plate reader (BioTek).
(§2) Second-order rate constants (k2/K) denoting the inactivation efficiency of BLIs were determined by continuously measuring CENTA (100 µM) hydrolysis ([28]) in the presence of various concentrations of BLI. Progress curves were fit to equation 3 using GraphPad Prism, where Ai and A0 are the measured and basal absorbance, vi and vs are initial and final velocity, and t is time in seconds. k2/K was derived with equation 4. Koff was determined by the jump dilution method ([24]). Kd was estimated from the ratio between koff and k2/K.
(§3) (3) Ai=A0+vst(vi-vs)[1-e^-(kobs)t/kobs]
(§4) (4) kobs=k-2+(k2/KI)[I]/1+[S]/KM

Data set [2] concerns the target KPC-2^V240G (Klebsiella pneumoniae, UniProt Q9F663, V239G). In words: Inhibition kinetics (CENTA hydrolysis, jump dilution), KPC-2 V240G. Type of data set: biochemical. The conditions noted are these: for pKd: estimated from ratio koff / k2/K; for koff: jump dilution. The protocol:
as §1, §2, §3, §4

Data set [3] deals with KPC-2^D179Y (Klebsiella pneumoniae, UniProt Q9F663, D178Y). In words: Inhibition kinetics (CENTA hydrolysis, jump dilution), KPC-2 D179Y. Type of data set: biochemical. The following applies: for pKd: estimated from ratio koff / k2/K; for koff: jump dilution. The protocol:
as §1, §2, §3, §4

The target of data set [4] is KPC-2^D179Y/T243M (Klebsiella pneumoniae, UniProt Q9F663, D178Y/T242M). The experiment in a line: Inhibition kinetics (CENTA hydrolysis, jump dilution), KPC-2 D179Y/T243M. The following applies: for pKd: estimated from ratio koff / k2/K; for koff: jump dilution. Type of data set: biochemical. The procedure:
as §1, §2, §3, §4

Data set [5] deals with KPC-3 WT (Klebsiella pneumoniae, UniProt Q9F663, H272Y). In words: Inhibition kinetics (CENTA hydrolysis, jump dilution), KPC-3 wt. Type of data set: biochemical. The following applies: for pKd: estimated from ratio koff / k2/K; for koff: jump dilution. The procedure:
as §1, §2, §3, §4

Data set [6] deals with KPC-3^V240G (Klebsiella pneumoniae, UniProt Q9F663, H272Y/V239G). The experiment in a line: Inhibition kinetics (CENTA hydrolysis, jump dilution), KPC-3 V240G. Type of data set: biochemical. The following applies: for pKd: estimated from ratio koff / k2/K; for koff: jump dilution. The protocol: as §1, §2, §3, §4
Chain of KPC-3^V240G (Q9F663 27-293 V239G/H272Y): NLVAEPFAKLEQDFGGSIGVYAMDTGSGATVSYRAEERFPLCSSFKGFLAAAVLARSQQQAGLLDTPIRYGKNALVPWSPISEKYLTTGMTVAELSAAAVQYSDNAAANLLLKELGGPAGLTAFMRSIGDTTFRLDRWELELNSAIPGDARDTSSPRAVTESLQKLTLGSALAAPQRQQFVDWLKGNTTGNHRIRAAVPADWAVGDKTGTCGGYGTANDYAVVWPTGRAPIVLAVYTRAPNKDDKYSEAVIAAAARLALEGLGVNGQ
For data set [7], the target named is KPC-3^D179Y (Klebsiella pneumoniae, UniProt Q9F663, D178Y/H272Y). The experiment in a line: Inhibition kinetics (CENTA hydrolysis, jump dilution), KPC-3 D179Y. Type of data set: biochemical. The following applies: for pKd: estimated from ratio koff / k2/K; for koff: jump dilution. The protocol:
as §1, §2, §3, §4

Data set [8] concerns the target KPC-3^D179Y/T243M (Klebsiella pneumoniae, UniProt Q9F663, D178Y/H272Y/T242M). The experiment in a line: Inhibition kinetics (CENTA hydrolysis, jump dilution), KPC-3 D179Y/T243M. Type of data set: biochemical. The conditions noted are these: for pKd: estimated from ratio koff / k2/K; for koff: jump dilution. The procedure:
as §1, §2, §3, §4

Data set [9] deals with E. coli control strain lacking a β-lactamase. The experiment in a line: microbe, parasite or virus in culture. The following applies: Escherichia coli, no KPC expressed, BLIs at fixed 4 μg/mL. Type of data set: cell-based.
Data set [10] concerns engineered E. coli strain expressing KPC-2 wt. The experiment in a line: microbe, parasite or virus in culture. Type of data set: cell-based. The conditions noted are these: Escherichia coli; KPC-2 wt strain; BLIs at fixed 4 μg/mL.
Data set [11] concerns engineered E. coli strain expressing KPC-2^V240G. The experiment in a line: microbe, parasite or virus in culture. The conditions noted are these: Escherichia coli, BLIs at fixed 4 μg/mL. Type of data set: cell-based.
Data set [12] deals with engineered E. coli strain expressing KPC-2^D179Y. In words: microbe, parasite or virus in culture. Type of data set: cell-based. The conditions noted are these: Escherichia coli, BLIs at fixed 4 μg/mL.
Data set [13] deals with engineered E. coli strain expressing KPC-2^D179Y/T243M. The experiment in a line: microbe, parasite or virus in culture. Type of data set: cell-based. The following applies: Escherichia coli, BLIs at fixed 4 μg/mL.
Data set [14] concerns engineered E. coli strain expressing KPC-3 wt. In words: microbe, parasite or virus in culture. The following applies: Escherichia coli; KPC-3 wt strain; BLIs at fixed 4 μg/mL. Type of data set: cell-based.
In data set [15] the test system is engineered E. coli strain expressing KPC-3^V240G. The experiment in a line: microbe, parasite or virus in culture. Type of data set: cell-based. The conditions noted are these: Escherichia coli, BLIs at fixed 4 μg/mL.
Data set [16] deals with engineered E. coli strain expressing KPC-3^D179Y. In words: microbe, parasite or virus in culture. Type of data set: cell-based. The conditions noted are these: Escherichia coli, BLIs at fixed 4 μg/mL.
Data set [17] relates to engineered E. coli strain expressing KPC-3^D179Y/T243M. In words: microbe, parasite or virus in culture. Type of data set: cell-based. The following applies: Escherichia coli, BLIs at fixed 4 μg/mL.
The test system of data set [18] is E. coli strains expressing KPC-2^D179Y or KPC-2^D179Y/T243M. In words: microbe, parasite or virus in culture. Type of data set: cell-based.
Data set [19] has as its system KPC-3^D179Y and KPC-3^D179Y/T243M. In words: Inhibition kinetics, summary for KPC-3 D179Y variants. Type of data set: biochemical, Klebsiella pneumoniae. The conditions noted are these: range over TAN, LED, AVI and both KPC-3 D179Y variants. The procedure:
as §1, §2, §3, §4

Data set [20] deals with T1, KPC-2 WT. The following applies: previously reported; cited from earlier work.
The mark [21] stands for this setting: pH 7.4, inactivation efficiency, read-out: k2/K.

pKd: −log10 of the molar value. Converted amounts (≈) assume the structure as drawn. Where two headings read alike, the source gives them in different places.

Broadly, the pKd is −log10 of the Kd, conventionally taken in molar units. As a reminder, the koff is a measure of how fast the partners let go of each other.

Chain of KPC-3 WT (Q9F663 27-293 H272Y): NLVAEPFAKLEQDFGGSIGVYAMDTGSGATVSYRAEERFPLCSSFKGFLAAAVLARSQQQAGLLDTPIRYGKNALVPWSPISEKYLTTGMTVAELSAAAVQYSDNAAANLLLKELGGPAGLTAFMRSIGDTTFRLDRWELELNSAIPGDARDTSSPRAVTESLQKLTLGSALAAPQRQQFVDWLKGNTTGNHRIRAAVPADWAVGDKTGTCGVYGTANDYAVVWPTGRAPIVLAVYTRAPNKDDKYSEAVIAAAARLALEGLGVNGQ
Chain of KPC-2^D179Y/T243M (Q9F663 25-293 D178Y/T242M): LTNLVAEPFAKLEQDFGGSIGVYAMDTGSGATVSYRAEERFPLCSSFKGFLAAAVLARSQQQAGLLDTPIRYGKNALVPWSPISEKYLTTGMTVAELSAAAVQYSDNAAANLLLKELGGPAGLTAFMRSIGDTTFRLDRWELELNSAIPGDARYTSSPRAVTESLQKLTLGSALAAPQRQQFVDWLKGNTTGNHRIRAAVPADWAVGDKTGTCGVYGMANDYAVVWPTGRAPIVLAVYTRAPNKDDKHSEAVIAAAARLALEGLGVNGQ
T1 sequence (Q9F663 25-293 limits assumed): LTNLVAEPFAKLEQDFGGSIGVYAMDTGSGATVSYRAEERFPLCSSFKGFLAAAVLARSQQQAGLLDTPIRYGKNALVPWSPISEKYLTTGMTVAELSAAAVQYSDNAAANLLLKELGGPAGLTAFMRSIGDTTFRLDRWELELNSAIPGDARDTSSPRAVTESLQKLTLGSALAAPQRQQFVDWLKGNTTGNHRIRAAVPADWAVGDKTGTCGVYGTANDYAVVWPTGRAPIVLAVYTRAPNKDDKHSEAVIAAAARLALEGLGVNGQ
Chain of KPC-3^D179Y/T243M (Q9F663 27-293 D178Y/T242M/H272Y): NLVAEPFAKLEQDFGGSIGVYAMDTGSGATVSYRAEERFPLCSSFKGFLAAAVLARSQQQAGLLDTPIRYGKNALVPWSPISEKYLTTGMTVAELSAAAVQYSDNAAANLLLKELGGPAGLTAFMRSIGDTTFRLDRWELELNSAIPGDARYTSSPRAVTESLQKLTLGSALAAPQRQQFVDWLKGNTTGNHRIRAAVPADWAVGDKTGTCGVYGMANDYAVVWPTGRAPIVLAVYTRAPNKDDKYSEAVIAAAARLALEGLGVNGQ
Chain of KPC-2^D179Y (Q9F663 25-293 D178Y): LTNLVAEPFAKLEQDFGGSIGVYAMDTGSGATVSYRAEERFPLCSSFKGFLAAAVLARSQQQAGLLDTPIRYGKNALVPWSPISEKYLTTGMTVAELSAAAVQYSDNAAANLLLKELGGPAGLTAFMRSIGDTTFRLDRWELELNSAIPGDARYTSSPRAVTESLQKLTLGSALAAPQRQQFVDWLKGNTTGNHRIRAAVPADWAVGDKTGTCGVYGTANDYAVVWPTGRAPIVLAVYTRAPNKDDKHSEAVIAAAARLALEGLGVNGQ
Chain of KPC-3^D179Y (Q9F663 27-293 D178Y/H272Y): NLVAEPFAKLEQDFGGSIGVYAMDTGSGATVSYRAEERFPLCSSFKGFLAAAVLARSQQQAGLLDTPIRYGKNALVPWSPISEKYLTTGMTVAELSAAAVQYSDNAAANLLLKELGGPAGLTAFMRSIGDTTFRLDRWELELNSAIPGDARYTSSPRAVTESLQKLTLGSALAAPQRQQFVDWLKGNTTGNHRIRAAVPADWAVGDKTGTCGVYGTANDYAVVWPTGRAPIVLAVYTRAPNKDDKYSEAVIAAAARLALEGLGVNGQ
Chain of KPC-2^V240G (Q9F663 25-293 V239G): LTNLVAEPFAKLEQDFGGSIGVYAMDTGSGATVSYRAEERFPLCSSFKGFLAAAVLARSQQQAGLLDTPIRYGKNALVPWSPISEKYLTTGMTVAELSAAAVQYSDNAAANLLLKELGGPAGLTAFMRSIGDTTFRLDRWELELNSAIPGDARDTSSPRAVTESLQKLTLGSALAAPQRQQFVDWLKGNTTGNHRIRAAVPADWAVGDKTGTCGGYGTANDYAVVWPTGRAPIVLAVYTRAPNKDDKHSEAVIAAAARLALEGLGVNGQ

`NC(=O)[C@@H]1CC[C@@H]2CN1C(=O)N2OS(=O)(=O)O` [AVI, avibactam]: the t1/2 is given as 21.4 ± 0.07 min in data set [1]; 21.5 ± 0.06 min in data set [2]; 205 ± 10 min in data set [3] (KPC-2 D179Y); 198 ± 8 min in data set [4] (KPC-2 D179Y/T243M); 10.1 ± 0.1 min in data set [5]; 10.7 ± 0.1 min in data set [6]. The t1/2 is given as 12.8 ± 0.9 min in data set [7] and 22.5 ± 3.5 min in [8].

`CC(C)(O/N=C(\C(=O)N[C@@H]1C(=O)N2C(C(=O)[O-])=C(C[n+]3ccccc3)CS[C@H]12)c1csc(N)n1)C(=O)O` [CAZ, ceftazidime]: the MIC was 0.5 mg/L (≈ 0.915 µM) in data set [9]; 64 mg/L (≈ 117 µM) in data set [10]; above 256 mg/L in data set [11]; above 256 mg/L in data set [12]; above 256 mg/L in data set [13]; 256 mg/L (≈ 468 µM) in data set [14]. Also, the MIC in data set [15], in [16], in [17] and in [18] (Escherichia coli) was above 256 mg/L in each case.

On to `CCC(=O)N[C@H]1Cc2cccc(C(=O)O)c2OB1O` [LED, ledaborbactam], for which the t1/2 in [2] stood at 32 ± 1 min; in data set [3] (KPC-2 D179Y), 16.7 ± 0.5 min; in data set [4] (KPC-2 D179Y/T243M), 18.6 ± 2.7 min; in data set [5], 19.6 ± 0.2 min; in data set [6], 19.3 ± 0.4 min; in [7], 17.2 ± 0.3 min. In addition, the t1/2 in data set [8] came to 18.1 ± 2.2 min. Moreover, the pKd in data set [2] was 7.92; in data set [3] (KPC-2 D179Y), 5.89; in data set [4] (KPC-2 D179Y/T243M), 5.82; in data set [5] it was 6.66; in data set [6], 7.34; in data set [7] it was 5.90. Also, the pKd was 6.21 in data set [8] and 8.05 in data set [20]. The koff was found to be 0.00037 s⁻¹ in [2] (read-out: koff); 0.00069 s⁻¹ in data set [3] (KPC-2 D179Y, read-out: koff); 0.00063 s⁻¹ in data set [4] (KPC-2 D179Y/T243M, read-out: koff); 0.00059 s⁻¹ in [5] (read-out: koff); 0.0006 s⁻¹ in [6] (read-out: koff); 0.00067 s⁻¹ in data set [7] (read-out: koff). Also, the off-rate (koff) in data set [8] (read-out: koff) is 0.00065 s⁻¹; in data set [20], “(2.5 ± 0.1) × 10^−4 s^−1”. The kinact/KI was determined as 31000 M⁻¹ s⁻¹ in data set [2] (setting [21]); 520 M⁻¹ s⁻¹ in data set [3] (pH 7.4, inactivation efficiency, KPC-2 D179Y, read-out: k2/K); 430 M⁻¹ s⁻¹ in data set [4] (pH 7.4, inactivation efficiency, KPC-2 D179Y/T243M, read-out: k2/K); 2700 M⁻¹ s⁻¹ in data set [5] (setting [21]); 13000 M⁻¹ s⁻¹ in [6] (setting [21]); 540 M⁻¹ s⁻¹ in data set [7] (setting [21]). Also, the kinact/KI in data set [8] (setting [21]) was 1000 M⁻¹ s⁻¹. For the same compound, the “reduced inactivation efficiencies relative to KPC-3^wt” value in [19] is 2–14 fold. Besides, in data set [20], the k2/K entry is listed as “(2.9 ± 0.07) × 10^4 M^−1⋅s^−1”.

As for `C[C@@H](O)[C@H]1C(=O)N2C(C(=O)O)=C(S[C@@H]3CN[C@H](C(=O)N(C)C)C3)[C@H](C)[C@H]12` [MEM, meropenem], the MIC in data set [9] is 0.03 mg/L (≈ 0.0782 µM); in data set [10] it was 32 mg/L (≈ 83.4 µM); in [11], 8 mg/L (≈ 20.9 µM); in data set [12] it was 0.25 mg/L (≈ 0.652 µM); in data set [13], 0.25 mg/L (≈ 0.652 µM); in data set [14], 16 mg/L (≈ 41.7 µM). Besides, the MIC in data set [15] was 16 mg/L (≈ 41.7 µM); in data set [16] it was 0.12 mg/L (≈ 0.313 µM); in data set [17], 0.12 mg/L (≈ 0.313 µM). Moreover, the “MIC increase relative to the control strain” value in [18] is “eightfold”.

`NCCN[C@H]1CC[C@H](CC(=O)N[C@H]2Cc3cccc(C(=O)O)c3OB2O)CC1` [TAN, taniborbactam]: the t1/2 in data set [1] was determined as 104 ± 2.3 min; in data set [2] it was 106 ± 2.3 min; in data set [3] (KPC-2 D179Y) it was 231 ± 19.4 min; in data set [4] (KPC-2 D179Y/T243M), 222.3 ± 13.7 min; in data set [5], 34 ± 4 min; in data set [6], 14.4 ± 0.7 min. Further, the values for the t1/2 in data set [7] and in data set [8] were 14.3 ± 1.2 min and 14.6 ± 5 min, respectively. In addition, the pKd in data set [1] (estimated from ratio koff / k2/K) was 7.96; in data set [2], 7.26; in data set [3] (KPC-2 D179Y), 5.54; in data set [4] (KPC-2 D179Y/T243M) it was 5.47; in [5], 8.05; in [6] it was 7.74. Also, the pKd in [7] was 6.54; in data set [8], 6.71. Also, the k2/K result is recorded as “(0.9 ± 0.02) × 10^4 M^−1⋅s^−1” in data set [1] (inactivation efficiency, CENTA 100 µM); “(0.2 ± 0.02) × 10^4 M^−1⋅s^−1” in data set [2] (inactivation efficiency); 17 ± 0.7 M^−1⋅s^−1 in [3] (inactivation efficiency, KPC-2 D179Y); 15.2 ± 0.1 M^−1⋅s^−1 in [4] (inactivation efficiency, KPC-2 D179Y/T243M); “(3.9 ± 0.4) × 10^4 M^−1⋅s^−1” in data set [5] (inactivation efficiency); “(4.4 ± 0.9) × 10^4 M^−1⋅s^−1” in data set [6] (inactivation efficiency). The k2/K entry in data set [7] (inactivation efficiency) is “(2.8 ± 0.2) × 10^3 M^−1⋅s^−1”; in data set [8] (inactivation efficiency), “(4.4 ± 0.7) × 10^3 M^−1⋅s^−1”. The koff entry is “(1.0 ± 0.04) × 10^−4 s^−1” in data set [1] (jump dilution); “(1.1 ± 0.03) × 10^−4 s^−1” in data set [2]; “(5.0 ± 0.4) × 10^−5 s^−1” in [3] (KPC-2 D179Y); “(5.2 ± 0.3) × 10^−5 s^−1” in data set [4] (KPC-2 D179Y/T243M); “(3.5 ± 0.4) × 10^−4 s^−1” in data set [5]; “(8.0 ± 0.4) × 10^−4 s^−1” in [6]. Further, the results for the koff entry in data set [7] and in data set [8] were “(8.1 ± 0.7) × 10^−4 s^−1” and “(8.5 ± 2.5) × 10^−4 s^−1”, respectively. In addition, the entries for the “reduction in k2/K” value in [3] (KPC-2^D179Y relative to KPC-2 wt) and in data set [4] (KPC-2^D179Y/T243M relative to KPC-2 wt) were “roughly 500 fold” and around 600 fold, respectively. Besides, in data set [19], the “reduced inactivation efficiencies relative to KPC-3^wt” value is recorded as 2–14 fold.

Values taken from PMC11881561 (Antimicrobial Agents and Chemotherapy, 2025).
